Laboratory results taken from publication PMC7693160 (Pharmaceutics, 2020).
≈ marks a conversion by molar mass, not a printed value. Read-outs that look alike come from different tables or passages of the source.

Experiments:
[1] = Equilibrium solubility, Uniprep method, 24 h at 37 °C; format: physicochemical
Method: The solubility of FLU was investigated in various aqueous and biorelevant dissolution media using the Uniprep system (Whatman, Piscataway, NJ, USA). All aqueous buffers were prepared according to the European Pharmacopoeia, while the biorelevant media were prepared according to Markopoulos et al. and Fuchs et al.. An excess amount of API was added to 3 mL of dissolution medium and the samples were incubated for 24 h at 37 °C on an orbital mixer. The samples were then filtered through the 0.45 μm polytetrafluoroethylene (PTFE) filter integrated in the Uniprep system. The filtrate was immediately diluted with mobile phase and analyzed by high-performance liquid chromatography (HPLC) (see Section 2.5). All measurements were performed at least in triplicate (n ≥ 3) and the final pH was recorded. […] Whatman, Piscataway, NJ, USA) and subsequently, after appropriate dilution with mobile phase, analyzed by HPLC-UV (Hitachi Chromaster; Hitachi Ltd., Tokyo, Japan or Spectra System HPLC, ThermoQuest Inc., San Jose, CA, USA). A BDS Hypersil C18, 5 μm, 150 × 4.6 mm (Thermo Scientific, Waltham, MA, United States) analytical column combined with a pre-column (BDS Hypersil C-18, 3μm, 10 × 4mm) was used. The mobile phase consisted of water adjusted to pH = 3.0 with trifluoroacetic acid (TFA) and acetonitrile (49.5:0.5:50% v/v). The detection wavelength was set at 247 nm, the flow rate at 1.0 mL/min, and the injection volume at 20 μL. Using this method, the retention time was approximately 6.8 min.

[2] = test system: CYP2C9 1*/3*
[3] = cited from earlier work
[4] = test system: UGT1A9; settings: Recombinant UGT; cited from earlier work

Compound `CC(C(=O)O)c1ccc(-c2ccccc2)c(F)c1` (stereo not drawn) [flurbiprofen] has a solubility at 24 h ([1]; 37 °C, aqueous buffer, thermodynamic from solid, Acetate buffer (pH = 4.5), pHfinal 4.7, read-out: Solubility, mean (SD)) of 101 µg/mL (≈ 414 µM), a solubility at 24 h ([1]; 37 °C, aqueous buffer, thermodynamic from solid, Phosphate buffer (pH = 6.5), pHfinal 6.1, read-out: Solubility, mean (SD)) of 2020 µg/mL (≈ 8290 µM) and a solubility at 24 h ([1]; 37 °C, aqueous buffer, thermodynamic from solid, Phosphate buffer (pH = 6.8), pHfinal 6.3, read-out: Solubility, mean (SD)) of 3130 µg/mL (≈ 12800 µM). It also gave a solubility at 24 h ([1]; 37 °C, fassgf or other biorelevant, thermodynamic from solid, Level III FaSSGF (pH = 1.6), pHfinal 1.6, read-out: Solubility, mean (SD)) of 18.5 µg/mL (≈ 75.7 µM), a solubility at 24 h ([1]; 37 °C, thermodynamic from solid, FaSSGF Level I (pH = 1.6), pHfinal 1.6, read-out: Solubility, mean (SD)) of 18.1 µg/mL (≈ 74.1 µM) and a solubility at 24 h ([1]; 37 °C, thermodynamic from solid, FeSSIF V1 Level I (pH = 5.0), pHfinal 5.1, read-out: Solubility, mean (SD)) of 225 µg/mL (≈ 923 µM). For the same compound, the solubility at 24 h ([1]; 37 °C, thermodynamic from solid, Level II FaSSIF V1 (pH = 6.5), pHfinal 6.0, read-out: Solubility, mean (SD)) was 1950 µg/mL (≈ 8000 µM), the solubility at 24 h ([1]; 37 °C, thermodynamic from solid, Level II FaSSIF V3 (pH = 6.7), pHfinal 5.9, read-out: Solubility, mean (SD)) was 1590 µg/mL (≈ 6490 µM) and the solubility at 24 h ([1]; aqueous buffer (FaSSGF Level I), pH 1.6, minimum experimentally measured value, read-out: S0 (intrinsic solubility)) was 18 µg/mL (≈ 73.7 µM). The “CYP2C9 1*/3*-Vmax” value [2] was 9.55 pmol/min/pmol CYP, the Blood/plasma ratio [3] was 0.55 and the “Fraction unbound in plasma” value [3] was 0.01. The “bound to plasma proteins” value [3] was over 99%, the Km [4] was 182 µM and the UGT1A9-Vmax [4] was 3.286 pmol/min/mg protein.
